In ChEMBL document CHEMBL1201862, “PubChem BioAssay data set” (2004):
The source made the active and inactive calls.

How the values were obtained:
[1] = target: T1, NADPH oxidase 1 (Homo sapiens, UniProt Q9Y5S8); test: Luminescence-based cell-based dose response assay to identify inhibitors of NADPH oxidase 1 (NOX1).; type: functional
T1 sequence (Q9Y5S8 whole entry): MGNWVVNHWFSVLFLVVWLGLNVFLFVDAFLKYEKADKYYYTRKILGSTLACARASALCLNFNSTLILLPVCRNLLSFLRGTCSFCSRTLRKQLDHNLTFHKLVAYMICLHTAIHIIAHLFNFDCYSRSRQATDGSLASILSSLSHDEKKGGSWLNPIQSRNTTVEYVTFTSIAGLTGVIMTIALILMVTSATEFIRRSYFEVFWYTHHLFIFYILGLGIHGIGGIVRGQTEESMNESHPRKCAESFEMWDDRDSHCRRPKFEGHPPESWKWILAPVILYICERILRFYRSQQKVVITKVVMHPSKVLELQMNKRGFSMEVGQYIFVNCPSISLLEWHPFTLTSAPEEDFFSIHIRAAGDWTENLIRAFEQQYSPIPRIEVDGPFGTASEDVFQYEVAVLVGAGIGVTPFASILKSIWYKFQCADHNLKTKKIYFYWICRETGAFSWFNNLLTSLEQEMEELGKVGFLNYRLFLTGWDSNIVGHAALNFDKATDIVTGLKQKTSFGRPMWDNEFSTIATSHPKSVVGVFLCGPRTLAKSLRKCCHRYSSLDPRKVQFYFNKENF

[2] = A Cell Based Secondary Assay To Explore Cytotoxicity of Compounds that Sensitize Mycobacterium Tuberculosis to Beta-Lactam Antibiotics.; type: functional
[3] = inhibitors of Bluetongue virus cytopathic effect, confirmation, arbovirus, BSR cells (AID 1250); type: functional;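 further: protection from viral cytopathic effect measured as cell viability by ATP luminescence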
[4] = target: Cytochrome P450 2C19 (Homo sapiens, UniProt P33261); test: Cytochrome panel assay with activity outcomes. Panel member name: p450-cyp2c19 Compounds with AC50 equal or less than 10 uM are considered active; type: functional; conditions: read-out: AC50
[5] = target: T2, Mannose-6-phosphate isomerase (Homo sapiens, UniProt P34949); test: inhibitors of human PMI, primary screen, biochemical, fluorescence intensity, coupled assay (AID 1209)
T2 sequence (P34949 whole entry): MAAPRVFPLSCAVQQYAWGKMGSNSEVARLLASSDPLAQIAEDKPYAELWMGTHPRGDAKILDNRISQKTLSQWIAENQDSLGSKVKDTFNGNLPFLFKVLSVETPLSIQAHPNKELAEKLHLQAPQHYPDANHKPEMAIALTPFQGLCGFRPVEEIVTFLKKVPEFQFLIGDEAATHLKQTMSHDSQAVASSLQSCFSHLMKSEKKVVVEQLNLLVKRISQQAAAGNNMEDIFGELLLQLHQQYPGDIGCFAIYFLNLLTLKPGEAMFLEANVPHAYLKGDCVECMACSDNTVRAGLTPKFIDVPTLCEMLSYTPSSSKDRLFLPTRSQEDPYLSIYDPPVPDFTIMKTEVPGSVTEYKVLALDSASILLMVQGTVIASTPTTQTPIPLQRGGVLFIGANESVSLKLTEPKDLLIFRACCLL

[6] = target: T2, Mannose-6-phosphate isomerase; test: human PMI inhibitors, high substrate, primary screen, biochemical, fluorescence intensity, high mannose 6-phosphate (AID 1220)
[7] = growth suppression of beta-catenin-knockout colon cells, dose response, cell-based, HCT116, human colon tumor (AID 1045); type: functional;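 further: HCT116 colon tumor cells with beta catenin knocked out; cells exposed to compound for 60 hours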
[8] = growth suppression of PTEN-null colon cells, dose response, cell-based, HCT116 PTEN knockout (AID 1047); type: functional;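 further: HCT116 colon tumor cells with PTEN knocked out; cells exposed to compound for 60 hours before readout; potency for loss of cell viability measured by luminescence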
[9] = test system: BJ; test: cytotoxicity toward BJ-TERT fibroblasts, dose response, cell-based, RAS-independent, luminescence (AID 1933); type: functional; conditions: Homo sapiens
[10] = test system: BJ; test: cytotoxicity toward Ras-transformed BJeLR fibroblasts, dose response, cell-based, alamar blue fluorescence, cherrypicked samples (AID 2631); type: functional; conditions: Homo sapiens;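 further: confirmatory dose-response assay in RAS-dependent BJ fibroblasts engineered with TERT, LT and ST, with cytotoxicity read by fluorescence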
[11] = cytotoxicity toward DRD oncogenic fibroblasts, dose response, cell-based, non-viral oncogenic, luminescence (AID 1934); type: functional; conditions: Homo sapiens
[12] = test system: BJ; test: cytotoxicity toward BJ-TERT-LT-ST fibroblasts, dose response, cell-based, RAS-independent, luminescence (AID 1935); type: functional; conditions: Homo sapiens;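 further: BJ fibroblasts immortalized with TERT plus LT and ST oncogenes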
[13] = test system: BJ; test: cells; type: functional, cell-based; conditions: Homo sapiens
[14] = cytotoxicity in HEK-293T cells, dose response, cytotoxicity control for TCR NF-kB inhibitor project, luminescence, T-cell screen hits (AID 489026); type: functional, cell-based;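 further: cells exposed to compound about 14 hours before the viability readout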
[15] = Luminescence-based dose response cell-based high throughput screening assay for cytotoxic compounds using the IEC-6 intestinal epithelial cell line. [Related pubchem assays: 1858 (Summary AID.), 1825 (Counterscreen.), 1907 (Confirmation screen.)]; type: functional
[16] = target: T3, Bcl-2-related protein A1 (Mus musculus, UniProt Q07440); test: Bfl-1 binding inhibitors, SAR follow-up, biochemical, fluorescence polarization (AID 1070)
T3 sequence (Q07440 whole entry): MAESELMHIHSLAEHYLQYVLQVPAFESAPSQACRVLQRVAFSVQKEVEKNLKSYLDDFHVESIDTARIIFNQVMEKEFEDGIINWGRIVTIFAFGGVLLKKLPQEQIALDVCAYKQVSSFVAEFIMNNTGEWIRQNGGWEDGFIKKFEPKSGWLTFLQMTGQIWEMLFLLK

[17] = target: T3, Bcl-2-related protein A1; test: Bfl-1 inhibitors blocking BH3 peptide binding, confirmation, biochemical, TR-FRET, mouse Bfl-1 (AID 621);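 further: TR-FRET binding of GST-Bfl-1 to FITC-labelled Bid peptide via terbium antibody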
[18] = target: Glyceraldehyde-3-phosphate dehydrogenase (Homo sapiens, UniProt P04406)
Glyceraldehyde-3-phosphate dehydrogenase, sequence (P04406 whole entry): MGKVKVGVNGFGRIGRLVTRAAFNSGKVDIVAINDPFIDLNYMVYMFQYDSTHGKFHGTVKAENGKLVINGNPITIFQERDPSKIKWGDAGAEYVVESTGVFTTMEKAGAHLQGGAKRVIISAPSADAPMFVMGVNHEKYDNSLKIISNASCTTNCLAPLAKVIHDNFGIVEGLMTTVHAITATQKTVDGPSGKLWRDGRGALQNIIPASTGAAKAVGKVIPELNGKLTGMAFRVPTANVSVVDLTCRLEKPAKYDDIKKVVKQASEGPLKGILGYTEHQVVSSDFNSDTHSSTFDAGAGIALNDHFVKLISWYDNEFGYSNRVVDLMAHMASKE

[19] = LGR2 antagonists, dose response, cell-based, HEK293, CRE-luciferase reporter, cherry pick, set 2 (AID 743343); type: functional;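 further: transfected cells were stimulated with diluted bursicon conditioned medium after compound addition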
[20] = cells; type: functional, cell-based
[21] = target: T4, Nuclear receptor subfamily 0 group B member 1 (Homo sapiens, UniProt P51843); type: functional, cell-based;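 further: HEK293T cells transfected with SF-1 and DAX-1 plus StAR promoter luciferase reporter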
T4 sequence (P51843 whole entry): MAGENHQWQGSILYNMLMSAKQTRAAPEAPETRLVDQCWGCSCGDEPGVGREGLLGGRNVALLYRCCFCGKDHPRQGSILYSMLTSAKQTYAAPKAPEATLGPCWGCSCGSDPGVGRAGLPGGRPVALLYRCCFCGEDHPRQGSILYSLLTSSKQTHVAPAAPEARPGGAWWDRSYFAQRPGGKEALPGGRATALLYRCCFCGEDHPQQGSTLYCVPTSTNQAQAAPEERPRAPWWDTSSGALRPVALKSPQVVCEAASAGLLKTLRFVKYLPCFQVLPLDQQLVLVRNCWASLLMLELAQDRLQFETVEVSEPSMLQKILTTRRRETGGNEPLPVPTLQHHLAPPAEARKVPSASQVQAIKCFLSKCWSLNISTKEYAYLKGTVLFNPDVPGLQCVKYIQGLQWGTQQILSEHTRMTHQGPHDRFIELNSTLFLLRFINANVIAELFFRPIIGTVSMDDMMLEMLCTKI

[22] = MC4R antagonists, dose response, counter-screen for LGR2 antagonist project, cell-based, plate reader, cherry pick (AID 743444); type: functional;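 further: transfected HEK 293 cells stimulated with alpha-MSH peptide; potency of inhibitors of the alpha-MSH evoked signal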
[23] = test system: HT-1080; test: cytotoxicity in HT1080 fibrosarcoma cells, cell-based, fluorescence readout (AID 620); type: functional; conditions: Homo sapiens
[24] = target: Luciferin 4-monooxygenase (Photinus pyralis, UniProt P08659); test: Counter Screen for Luciferase-based Assay Positives. [Related pubchem assays: 620, 618, 411 ]
Luciferin 4-monooxygenase, sequence (P08659 whole entry): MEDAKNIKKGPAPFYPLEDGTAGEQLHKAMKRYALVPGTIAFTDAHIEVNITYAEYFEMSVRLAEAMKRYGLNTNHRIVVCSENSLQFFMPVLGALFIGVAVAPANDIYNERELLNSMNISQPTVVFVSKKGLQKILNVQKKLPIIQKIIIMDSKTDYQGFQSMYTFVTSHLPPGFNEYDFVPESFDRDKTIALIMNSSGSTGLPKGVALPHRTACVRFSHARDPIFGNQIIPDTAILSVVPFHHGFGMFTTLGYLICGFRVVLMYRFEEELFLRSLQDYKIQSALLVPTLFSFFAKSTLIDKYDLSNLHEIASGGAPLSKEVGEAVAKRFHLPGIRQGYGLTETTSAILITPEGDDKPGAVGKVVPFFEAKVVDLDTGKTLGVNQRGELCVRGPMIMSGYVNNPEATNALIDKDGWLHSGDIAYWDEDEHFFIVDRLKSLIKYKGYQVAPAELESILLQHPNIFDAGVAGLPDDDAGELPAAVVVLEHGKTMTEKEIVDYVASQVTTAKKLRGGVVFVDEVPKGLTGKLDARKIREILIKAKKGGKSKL

[25] = target: Peroxisome proliferator-activated receptor gamma/Nuclear receptor coactivator 1 (Homo sapiens, UniProt P37231); type: functional;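 further: agonist potency as compounds enhance coactivator SRC-1 recruitment to PPARgamma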
Peroxisome proliferator-activated receptor gamma/Nuclear receptor coactivator 1, sequence (P37231 whole entry): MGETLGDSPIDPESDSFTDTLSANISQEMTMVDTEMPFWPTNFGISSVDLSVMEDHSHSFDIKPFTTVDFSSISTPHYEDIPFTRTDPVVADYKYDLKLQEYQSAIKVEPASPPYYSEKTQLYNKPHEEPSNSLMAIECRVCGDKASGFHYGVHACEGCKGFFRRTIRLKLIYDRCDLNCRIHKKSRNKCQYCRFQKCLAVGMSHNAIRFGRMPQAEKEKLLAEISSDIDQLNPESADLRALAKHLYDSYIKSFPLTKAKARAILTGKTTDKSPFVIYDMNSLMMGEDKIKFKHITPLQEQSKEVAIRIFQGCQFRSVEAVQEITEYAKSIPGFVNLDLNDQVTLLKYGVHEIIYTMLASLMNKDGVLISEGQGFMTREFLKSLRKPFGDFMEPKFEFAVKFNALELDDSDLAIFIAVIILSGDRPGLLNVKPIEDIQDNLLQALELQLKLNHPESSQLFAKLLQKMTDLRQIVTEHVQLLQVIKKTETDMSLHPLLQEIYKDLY
Peroxisome proliferator-activated receptor gamma/Nuclear receptor coactivator 1, sequence (Q15788 whole entry, further chain): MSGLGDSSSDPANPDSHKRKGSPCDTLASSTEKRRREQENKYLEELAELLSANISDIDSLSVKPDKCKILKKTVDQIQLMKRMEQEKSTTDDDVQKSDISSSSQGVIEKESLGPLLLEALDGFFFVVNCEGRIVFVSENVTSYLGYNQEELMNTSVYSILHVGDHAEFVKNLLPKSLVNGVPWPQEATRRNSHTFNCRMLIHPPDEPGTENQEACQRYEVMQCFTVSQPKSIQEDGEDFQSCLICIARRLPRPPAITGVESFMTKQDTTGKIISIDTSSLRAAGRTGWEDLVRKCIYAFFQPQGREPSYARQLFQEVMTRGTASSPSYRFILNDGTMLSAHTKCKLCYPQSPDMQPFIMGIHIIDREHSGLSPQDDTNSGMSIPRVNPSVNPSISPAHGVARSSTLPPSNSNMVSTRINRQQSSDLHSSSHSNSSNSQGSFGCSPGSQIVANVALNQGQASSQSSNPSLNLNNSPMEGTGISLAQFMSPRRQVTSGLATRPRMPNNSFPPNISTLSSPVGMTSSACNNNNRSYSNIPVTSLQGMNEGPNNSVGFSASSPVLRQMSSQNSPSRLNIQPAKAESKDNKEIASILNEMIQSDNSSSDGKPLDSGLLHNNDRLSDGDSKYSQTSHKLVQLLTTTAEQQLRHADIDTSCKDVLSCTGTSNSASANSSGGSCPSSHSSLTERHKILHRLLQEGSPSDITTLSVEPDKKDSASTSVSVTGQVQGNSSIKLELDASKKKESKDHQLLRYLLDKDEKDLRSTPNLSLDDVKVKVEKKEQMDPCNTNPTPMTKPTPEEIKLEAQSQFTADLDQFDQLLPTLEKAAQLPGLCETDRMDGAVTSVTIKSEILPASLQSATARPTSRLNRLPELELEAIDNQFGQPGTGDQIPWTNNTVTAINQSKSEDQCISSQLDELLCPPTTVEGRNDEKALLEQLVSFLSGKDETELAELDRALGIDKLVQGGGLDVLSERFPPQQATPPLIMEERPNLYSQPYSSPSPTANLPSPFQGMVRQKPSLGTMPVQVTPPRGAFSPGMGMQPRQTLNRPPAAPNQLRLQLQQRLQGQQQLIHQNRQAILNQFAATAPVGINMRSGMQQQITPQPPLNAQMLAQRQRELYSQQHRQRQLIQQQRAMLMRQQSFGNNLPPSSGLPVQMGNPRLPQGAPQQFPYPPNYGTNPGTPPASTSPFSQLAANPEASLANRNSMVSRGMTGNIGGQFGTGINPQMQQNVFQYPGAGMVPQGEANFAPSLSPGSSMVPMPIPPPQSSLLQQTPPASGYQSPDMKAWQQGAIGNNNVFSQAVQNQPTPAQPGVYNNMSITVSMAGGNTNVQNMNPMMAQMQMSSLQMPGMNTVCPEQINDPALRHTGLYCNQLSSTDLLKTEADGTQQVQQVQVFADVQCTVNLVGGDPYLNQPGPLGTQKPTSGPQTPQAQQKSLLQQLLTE

[26] = target: Peroxisome proliferator-activated receptor gamma/Nuclear receptor coactivator 3 (Homo sapiens, UniProt P37231); type: functional;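 further: agonist potency for raising coactivator recruitment to the receptor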
[27] = target: Peroxisome proliferator-activated receptor gamma/Nuclear receptor coactivator 2 (Homo sapiens, UniProt P37231); type: functional;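 further: agonist potency for raising coactivator recruitment to the receptor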
Peroxisome proliferator-activated receptor gamma/Nuclear receptor coactivator 2, sequence (P37231 whole entry): as the sequence (P37231 whole entry) above
Peroxisome proliferator-activated receptor gamma/Nuclear receptor coactivator 2, sequence (Q15596 whole entry, further chain): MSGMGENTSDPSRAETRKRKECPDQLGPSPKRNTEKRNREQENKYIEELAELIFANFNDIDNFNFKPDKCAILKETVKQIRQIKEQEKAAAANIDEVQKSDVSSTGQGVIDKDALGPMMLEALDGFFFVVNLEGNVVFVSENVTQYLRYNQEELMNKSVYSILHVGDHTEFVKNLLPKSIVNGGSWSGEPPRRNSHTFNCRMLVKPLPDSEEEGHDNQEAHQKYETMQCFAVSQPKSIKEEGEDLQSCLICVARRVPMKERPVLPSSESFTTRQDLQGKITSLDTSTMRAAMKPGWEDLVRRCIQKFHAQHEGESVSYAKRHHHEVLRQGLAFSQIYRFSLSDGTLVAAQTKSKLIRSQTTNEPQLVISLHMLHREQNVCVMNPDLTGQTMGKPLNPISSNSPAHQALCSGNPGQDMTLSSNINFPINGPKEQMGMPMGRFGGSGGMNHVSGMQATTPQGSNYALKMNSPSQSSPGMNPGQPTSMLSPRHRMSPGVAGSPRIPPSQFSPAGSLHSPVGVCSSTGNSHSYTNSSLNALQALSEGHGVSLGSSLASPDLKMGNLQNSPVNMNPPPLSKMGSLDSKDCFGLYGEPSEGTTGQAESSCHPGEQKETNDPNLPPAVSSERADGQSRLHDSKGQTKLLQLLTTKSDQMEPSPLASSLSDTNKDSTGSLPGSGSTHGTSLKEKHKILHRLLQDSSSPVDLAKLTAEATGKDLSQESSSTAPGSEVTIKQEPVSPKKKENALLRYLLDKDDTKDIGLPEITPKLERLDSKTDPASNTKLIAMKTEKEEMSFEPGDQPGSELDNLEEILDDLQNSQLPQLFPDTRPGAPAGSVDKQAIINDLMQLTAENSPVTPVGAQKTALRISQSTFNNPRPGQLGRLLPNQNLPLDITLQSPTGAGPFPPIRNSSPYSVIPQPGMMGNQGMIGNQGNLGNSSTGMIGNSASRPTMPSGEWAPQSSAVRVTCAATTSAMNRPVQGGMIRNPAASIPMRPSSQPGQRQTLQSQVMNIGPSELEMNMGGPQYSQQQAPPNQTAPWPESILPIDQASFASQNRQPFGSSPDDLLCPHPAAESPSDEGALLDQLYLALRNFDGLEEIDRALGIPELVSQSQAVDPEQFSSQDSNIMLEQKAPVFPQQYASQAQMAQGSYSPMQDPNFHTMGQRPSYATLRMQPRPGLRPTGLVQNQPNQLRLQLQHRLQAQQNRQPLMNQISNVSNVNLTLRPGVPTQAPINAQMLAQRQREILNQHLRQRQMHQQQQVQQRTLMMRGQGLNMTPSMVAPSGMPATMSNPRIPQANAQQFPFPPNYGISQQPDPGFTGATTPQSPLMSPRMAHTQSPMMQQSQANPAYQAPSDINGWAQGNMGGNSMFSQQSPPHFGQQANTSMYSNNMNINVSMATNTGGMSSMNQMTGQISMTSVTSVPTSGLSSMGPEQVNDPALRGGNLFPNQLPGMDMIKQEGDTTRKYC

[28] = test system: Vero; test: cells; type: functional, cell-based; conditions: Chlorocebus sabaeus
[29] = test system: Vero; test: cells; type: functional; conditions: Chlorocebus sabaeus
[30] = inhibitors of firefly luciferase expression or activity, dose response, H4 neuroglioma cells, luminescence (AID 1990); type: functional, cell-based
[31] = inhibitors of SNCA 5'UTR-driven reporter translation, confirmation, H4 neuroglioma cells, luminescence (AID 1988); type: functional, cell-based
[32] = cells; type: functional, cell-based; remark: listed apart in the source
[33] = cytotoxicity toward NIH3T3 fibroblasts, dose response, counter-screen, cell-based, ATP luminescence, mouse fibroblasts (AID 2010); type: functional;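 further: cells exposed to compound for about 90 hours before reading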
[34] = test system: Vero; test: host cell cytotoxicity of antiviral hits, dose response, cytotoxicity control for West Nile virus antiviral project, secondary assay (AID 1650); type: functional; conditions: Chlorocebus sabaeus
[35] = test system: Streptococcus; test: Group A Streptococcus viability loss, dose response, counter-screen for streptokinase expression inhibitor project, luminescence, BacTiterGlo (AID 1915); type: functional, organism-based;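 further: potency for reduction of bacterial viability or growth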
[36] = inhibitors of intracellular T. cruzi replication, confirmation, NIH3T3 host cells, beta-gal luminescence (AID 2044); type: functional, cell-based;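 further: intracellular parasites grown in NIH/3T3 mouse fibroblasts as host cells; luminescent beta-galactosidase reporter signal from transgenic T. cruzi replicating inside host cells; inhibitors lower the luminescence signal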
[37] = test system: Streptococcus sp. 'group A'; test: growth inhibition of control SK(-) GAS strain, dose response, counter-screen for streptokinase expression inhibitor project, luminescence, kanamycin, BacTiterGlo, confirmation (AID 1900); type: functional, organism-based
[38] = cells; type: functional, cell-based; remark: listed apart in the source
[39] = test system: INS1; test: beta cell apoptosis inhibitors, cytokine rescue, dose response, luminescence, retest (AID 449756); type: functional, cell-based; conditions: Rattus norvegicus;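 further: cell death triggered by IL-1 beta plus TNF-alpha plus IFN-gamma mixture; protective hits raise ATP signal compared with cytokine alone wells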
[40] = Luminescence Cell-Based Dose Response HTS to Identify Inhibitors of 5'UTR Stem-Loop Driven Prion Protein mRNA Translation in H4 Neuroglioblastoma Cells. [Related pubchem assays: 1827 (Project Summary), 1813 (Primary HTS)]; type: functional
[41] = cytotoxicity in HEK-293T cells, dose response, cytotoxicity control for BCR NF-kB inhibitor project, luminescence, B-cell screen hits (AID 489021); type: functional, cell-based;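 further: HEK-293T cells carrying an NF-kB luciferase reporter; cells exposed to compound for about 14 hours before viability readout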

## [O-][S+]1c2ccccc2Nc2ccccc21
[1]
  IC50: > 20 µM (not active)

## CS(=O)(=O)N(Cc1ccccc1)c1ccc(C(=O)N2CCN(c3cccc(Cl)c3)CC2)cc1
[2]
  CC50: > 40 µM (active)

## O=c1oc(-c2cccs2)nc2ccc(Br)cc12
[3]
  IC50: 28.9 µM (active)
[4]
  AC50: 22.4 µM (inconclusive)

## O=C(NCc1ccco1)c1cccn2c(=O)c3cc4ccccc4cc3nc12
[5]
  IC50: > 50 µM (not active)
[6]
  IC50: > 50 µM (not active)
[7]
  EC50: 10.7 µM (active)
[8]
  EC50: 12.4 µM (active)

## CC(=O)N1c2ccccc2S(=O)(=O)c2ccccc21
[1]
  IC50: > 20 µM (not active)

## CCOCCOC(=O)c1[nH]c2c(c1C)C(=O)CC(c1ccccc1)C2 (centres undefined)
[9]
  EC50: 0.851 µM (inconclusive)
[10]
  EC50: < 0.104 µM (inconclusive)
[11]
  EC50: 1.29 µM (active)
[12]
  EC50: 0.756 µM (active)
[13]
  EC50: 12.6 µM (active)
[14]
  IC50: > 80 µM (inactive)
[15]
  IC50: 0.521 µM (active)

## CN1CCN(C2=C(Cl)C(=O)N(c3ccc(Cl)cc3Cl)C2=O)CC1
[16]
  IC50: 2.62 µM (active)
[17]
  IC50: 1.36 µM (active)
[18]
  IC50: > 100 µM (not active)

## CC(C)Nc1ncnc2c1cnn2-c1ccc(Cl)cc1
[19]
  AC50: 11.9 µM (active)
[20]
  IC50: > 67.5 µM (inactive)
[21]
  IC50: > 67.5 µM (inactive)
[22]
  AC50: 13.3 µM (active)
[23]
  EC50: > 50 µM (not active)
[24]
  EC50: 15.3 µM (active)

## CC1CCc2c(sc3nc(SCC(=O)NCc4ccco4)nc(N)c23)C1 (centres undefined)
[25]
  EC50: > 79.4 µM (not active)
[26]
  EC50: > 79.4 µM (not active)
[27]
  EC50: > 79.4 µM (not active)

## CCc1ccc(CC2S/C(=C(\C#N)C(C)=O)NC2=O)cc1 (centres undefined)
[3]
  IC50: 27.9 µM (active)
[28]
  IC50: 13.2 µM (active)
[29]
  CC50: > 25 µM (active)

## Cc1ccccc1NC(=O)c1cnc2ccccn2c1=O
[23]
  EC50: > 50 µM (not active)
[24]
  EC50: 46.4 µM (active)

## O=C(C1=C[C@@H](c2ccc(Br)cc2)C[C@@H](OCCCCO)O1)N1CCN(Cc2ccc3c(c2)OCO3)CC1
[30]
  EC50: 16.3 µM (active)
[31]
  EC50: 20.5 µM (active)
[25]
  EC50: > 79.4 µM (not active)
[26]
  EC50: > 79.4 µM (not active)
[27]
  EC50: > 79.4 µM (not active)

## Oc1nc(-c2ccccn2)nc2sc(-c3ccccc3)cc12
[9]
  EC50: 17.6 µM (active)
[11]
  EC50: 121 µM (inconclusive)
[32]
  EC50: 4.87 µM (active)
[12]
  EC50: 15.6 µM (inconclusive)
[33]
  EC50: 1.27 µM (active)
[28]
  IC50: 7 µM (active)
[34]
  CC50: 2.08 µM (active)
[13]
  EC50: 16.2 µM (active)
[35]
  EC50: 13.2 µM (active)
[36]
  EC50: 0.216 µM (active)
[37]
  EC50: 0.571 µM (active)
[38]
  EC50: 16.6 µM (active)

## COc1ccc(Cc2nc(-c3ccc(NC(=O)c4cccnc4)cc3)no2)cc1
[9]
  EC50: > 150 µM (inconclusive)
[10]
  EC50: 58.4 µM (active)
[11]
  EC50: > 150 µM (not active)
[12]
  EC50: > 150 µM (not active)
[30]
  EC50: 11.2 µM (active)
[39]
  AC50: < 0.195 µM (active)
[31]
  EC50: 5.99 µM (active)
[13]
  EC50: 2.38 µM (active)
[15]
  IC50: 0.649 µM (active)
[40]
  EC50: 8.73 µM (active)
[41]
  IC50: > 80 µM (inactive)

## O=C1C(Cl)=C(Cl)C(=O)N1c1ccc(Cl)c(Cl)c1
[16]
  IC50: 1.15 µM (active)
[17]
  IC50: 0.77 µM (active)
[18]
  IC50: > 100 µM (not active)
